Data as given in US11771084B2, “Preservation of personal care compositions” (SHARON LABORATORIES LTD., priority 2018, dated 2023).
Values after ≈ are worked out from the molar mass of the structure shown. Read-outs that look alike come from different tables or passages of the source.

Experiments:
[1] = Maltol shielding: absorbance at 410 nm, chelators, stainless steel 316; assay type: physicochemical; conditions: 0.5% solution of 90% Maltol and 10% Polyquaternium-80 in demineralized water, stainless steel 316 chip 12 hr
Text: Maltol has a metal chelating property. It can bond with metal ions and form a chelate product that can be strongly colored. This reaction is highly likely to happen when maltol is used in a manufacturing process involving steel based equipment. It means that even small quantities of these chelates could induce an undesirable color in a finished cosmetic product. A way to inhibit this phenomenon would be to add to maltol a small quantity of a stronger chelating agent, in order to intercept possible metal ions before Maltol could do so. Thus, an examination of various chelating agents in order to “protect” the Maltol from chelating metal ions was done. Procedure: […]

P. aeruginosa ATCC 9027 = assay: MIC evaluation test; assay type: cell-based, Pseudomonas aeruginosa
Method: (§1) The culture is standardized using standard microbiological techniques to have a concentration of very near 1 million cells per milliliter.
(§2) The antimicrobial agent is diluted a number of times, with Tryptic soy broth or sabouraud broth for fungi. After the antimicrobial agent had been diluted, a volume of the standardized inoculums was added to each dilution vessel, bringing the microbial concentration to approximately 1,000,000 cells per milliliter. The inoculated, serially diluted antimicrobial agent was incubated at an appropriate temperature for the test organism, 24 hours for bacteria 48 for yeast and 72 for mold.
(§3) MIC results are expressed in ppm.
(§4) The microorganism strains used for the test were E. coli ATCC 8739, P. aeruginosa ATCC 9027, S. aureus ATCC 6538, C. albicans ATCC 10231, A. niger ATCC 16404.

S. aureus ATCC 6538 = assay: MIC evaluation test; assay type: cell-based, Staphylococcus aureus
Method: as §1, §2, §3, §4

A. niger ATCC 16404 = assay: MIC evaluation test; assay type: cell-based, Aspergillus brasiliensis (niger)
Method: In another exemplary procedure, MIC evaluation test with A. niger was performed in test tubes. Growth in this case is visually evaluated. A pure culture of a single microorganism was grown in Tryptic soy broth, or sabouraud broth for yeast and mold.
as §1, §2, §3, §4

E. coli ATCC 8739 = assay: MIC evaluation test; assay type: cell-based, Escherichia coli
Method: as §1, §2, §3, §4

C. albicans ATCC 10231 = assay: MIC evaluation test; assay type: cell-based, Candida albicans
Method: In additional exemplary procedure, minimum inhibitory concentration (MIC) evaluation test with Candida albicans was performed in test tubes. Growth in this case is visually evaluated. A pure culture of a single microorganism was grown in Tryptic soy broth, or sabouraud broth for yeast and mold.
as §1, §2, §3, §4

[2] = formulation on stainless steel 304
Method: Procedure: To a 0.5% solution of 90% Maltol and 10% Polyquaternium-80 in demineralized water a chelating agent was added in concentrations of 25 ppm, 50 ppm, 100 ppm, 150 ppm, 200 ppm and 250 ppm, then a chip of stainless steel 316 (˜1×1 cm) was added to the solution for 12 hr.
The absorbance at 410 nm was measured with spectrophotometer Genesys 10uv (Thermo Scientific), the blank was a solution of 0.5% 90% Maltol and 10% Polyquaternium-80 in demineralized water.

[3] = Pseudomonas aeruginosa, ATCC9027
[4] = Staphylococcus aureus, ATCC6538

Molecule	absorbance at 410 nm ([1]; chelator Concentration (%) 0.5)	absorbance at 410 nm ([1]; chelator Concentration (%) 1)	absorbance at 410 nm ([1]; chelator Concentration (%) 2)	absorbance at 410 nm ([1]; chelator Concentration (%) 3)	absorbance at 410 nm ([1]; chelator Concentration (%) 4)	absorbance at 410 nm ([1]; chelator Concentration (%) 5)	other results
CCCCCCCCCCCC[N+](C)(C)Cc1ccccc1.[Cl-] [Benzyldimethyldodecylammonium chloride]							MIC (P. aeruginosa ATCC 9027; [3]): 120 µg/mL; MIC (S. aureus ATCC 6538; [4]): < 60 µg/mL; MIC (A. niger ATCC 16404; Aspergillus niger, ATCC16404): < 60 µg/mL; MIC (E. coli ATCC 8739; Escherichia coli, ATCC8739): < 60 µg/mL; MIC (C. albicans ATCC 10231; Candida albicans, ATCC10231): < 60 µg/mL
CCCCCCCCCC[N+](C)(C)CCCCCCCCCC.[Cl-] [Didecyldimethylammonium chloride]							MIC (P. aeruginosa ATCC 9027; [3]): 15 µg/mL; MIC (S. aureus ATCC 6538; [4]): < 3 µg/mL; MIC (A. niger ATCC 16404; Aspergillus niger, ATCC16404): < 30 µg/mL; MIC (E. coli ATCC 8739; Escherichia coli, ATCC8739): < 3 µg/mL; MIC (C. albicans ATCC 10231; Candida albicans, ATCC10231): < 30 µg/mL
O=C([O-])CN(CCN(CC(=O)O)CC(=O)O)CC(=O)[O-].[Na+].[Na+] [Disodium EDTA, Ethylenediaminetetraacetic acid disodium salt]	0.022	0.009	0.004	0.002	0	0	absorbance at 410 nm ([2]; chelator Concentration (%) 0.5): 0.061; absorbance at 410 nm ([2]; chelator Concentration (%) 1): 0.010; absorbance at 410 nm ([2]; chelator Concentration (%) 2): 0.026; absorbance at 410 nm ([2]; chelator Concentration (%) 3): 0.007; absorbance at 410 nm ([2]; chelator Concentration (%) 4): 0; absorbance at 410 nm ([2]; chelator Concentration (%) 5): 0
CCCCCCCCCCCC[N+](C)(C)C.[Cl-] [Dodecyltrimethylammonium chloride]							MIC (P. aeruginosa ATCC 9027; [3]): 360 µg/mL; MIC (S. aureus ATCC 6538; [4]): < 60 µg/mL; MIC (A. niger ATCC 16404; Aspergillus niger, ATCC16404): 360 µg/mL; MIC (E. coli ATCC 8739; Escherichia coli, ATCC8739): < 60 µg/mL; MIC (C. albicans ATCC 10231; Candida albicans, ATCC10231): < 60 µg/mL
CCCCCCCCCCCC(=O)N[C@@H](CCCN=C(N)N)C(=O)OCC [Ethyl Lauroyl Arginate]							MIC (P. aeruginosa ATCC 9027): 5000 ppm; MIC (S. aureus ATCC 6538): 500 ppm; MIC (A. niger ATCC 16404): 20000 ppm; MIC (E. coli ATCC 8739): 2500 ppm; MIC (C. albicans ATCC 10231): 10000 ppm
Cc1occc(=O)c1O [Maltol]							MIC (P. aeruginosa ATCC 9027; Pseudomonas aeruginosa, ATCC9027, read-out: MIC): < 1350 µg/mL; MIC (S. aureus ATCC 6538; Staphylococcus aureus, ATCC6538, read-out: MIC): 3800 µg/mL (≈ 30.1 mM); MIC (A. niger ATCC 16404; Aspergillus niger, ATCC16404, read-out: MIC): 3150 µg/mL (≈ 25 mM); MIC (E. coli ATCC 8739; Escherichia coli, ATCC8739, read-out: MIC): 4000 µg/mL (≈ 31.7 mM); MIC (C. albicans ATCC 10231; Candida albicans, ATCC10231, read-out: MIC): 2250 µg/mL (≈ 17.8 mM)
O=C([O-])[C@H](O)[C@@H](O)[C@H](O)[C@H](O)CO.[Na+] [Sodium gluconate]	0.022	0.04	0.042	0.045	0.005	0.006	
Zinc gluconate	0.231	0.136	0.207	0.096	0.147	0.058	

Further lines, with some results ahead:

absorbance at 410 nm ([1]; chelator Concentration (%) 0.5)	absorbance at 410 nm ([1]; chelator Concentration (%) 1)	absorbance at 410 nm ([1]; chelator Concentration (%) 2)	absorbance at 410 nm ([1]; chelator Concentration (%) 3)	absorbance at 410 nm ([1]; chelator Concentration (%) 4)	absorbance at 410 nm ([1]; chelator Concentration (%) 5)	Molecule	other results
0.182	0.162	0.145	0.155	0.101	0.06	O=C1O[C@H]([C@@H](O)CO)C(O)=C1O [Ascorbic acid]	
0.133	0.039	0.045	0.124	0.067	0.098	O=C(O)CCN(CC(=O)O)CC(=O)O [Beta Alanine diAcetic acid]	
0.113	0.391	0.393	0.102	0.311	0.096	CSCC[C@H](N)C(=O)O [L-Methionine]	
0.073	0.044	0.386	0.226	0.078	0.12	COc1cc(C(=O)[O-])ccc1O.[Na+] [Sodium vanillate]	
0.037	0.053	0.062	0.05	0.159	0.048	COc1cc(C=O)ccc1O [Vanillin]	
